Measured values reported in US7973061B2, “Anaplastic lymphoma kinase modulators and methods of use” (Exelixis, Inc., priority 2004, dated 2011).

Molecular target: T1, ALK (baculovirus expressed human ALK kinase domain F1098-K1410) (Homo sapiens, UniProt Q9UM73)
T1 construct: human ALK kinase domain F1098-K1410; made in house
Assay: biochemical
Details: 1 μM ATP, 4 μM poly-AEKY, 12 nM ALK, 2 hours at ambient temperature; read-out: ALK IC50
Protocol: Kinase activity and compound inhibition are investigated using one or more of the three assay formats described below. The ATP concentrations for each assay are selected to be close to the Michaelis-Menten constant (KM) for each individual kinase. Dose-response experiments are performed at 10 different inhibitor concentrations in a 384-well plate format. […] Y=Min+(Max−Min)/(1+(X/IC50)^H) Equation (2) Luciferase-Coupled Chemiluminescent Kinase Assay
ALK biochemical activity was assessed using a Luciferase-Coupled Chemiluminescent Kinase assay (LCCA) format in which kinase activity was measured as the percent ATP remaining following the kinase reaction. ATP remaining after the kinase reaction was detected by luciferase-luciferin-coupled chemiluminescence. […] The mixture was incubated at ambient temperature for 2 hours after which 20 μL luciferase-luciferin mix was added and the chemiluminescent signal read using a Wallac Victor^2 reader. […] Consumption of ATP by ALK can be quantified and utilized as a measure of inhibition of ALK activity by compounds described herein. By employing serial dilutions of compounds to be tested, the ability of test compounds to inhibit ALK activity can be determined.

T1 sequence (Q9UM73 1098-1410): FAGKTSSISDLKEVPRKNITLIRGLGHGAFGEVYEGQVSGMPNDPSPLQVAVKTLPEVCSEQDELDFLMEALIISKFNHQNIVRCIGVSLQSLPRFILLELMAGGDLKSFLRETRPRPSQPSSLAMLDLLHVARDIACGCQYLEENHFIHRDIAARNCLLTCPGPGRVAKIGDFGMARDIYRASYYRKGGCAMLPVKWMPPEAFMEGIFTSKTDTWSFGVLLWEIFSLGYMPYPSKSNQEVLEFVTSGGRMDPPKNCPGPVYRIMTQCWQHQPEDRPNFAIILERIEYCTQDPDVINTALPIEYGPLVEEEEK

| SMILES | IC50 [nM] |
| --- | --- |
| O=C(NCCc1cccc(Cl)c1)c1csc(CNC(=O)c2cccnc2Oc2ccc(Cl)cc2)n1 [Entry 62, N-{[4-({[2-(3-chlorophenyl)ethyl]amino}carbonyl)-1,3-thiazol-2-yl]methyl}-2-[(4-chlorophenyl)oxy]pyridine-3-carboxamide] | 50 to 500 |
| O=C(COc1ccc(OC(F)(F)F)cc1)NCc1nc(C(=O)NCc2ccccc2C(F)(F)F)cs1 [Entry 63, 2-({[({4-[(trifluoromethyl)oxy]phenyl}oxy)acetyl]amino}methyl)-N-{[2-(trifluoromethyl)phenyl]methyl}-1,3-thiazole-4-carboxamide] | 50 to 500 |
| O=C(COc1ccc(OC(F)(F)F)cc1)NCc1nc(C(=O)NCc2ccc(Cl)cc2Cl)cs1 [Entry 64, N-[(2,4-dichlorophenyl)methyl]-2-({[({4-[(trifluoromethyl)oxy]phenyl}oxy)acetyl]amino}methyl)-1,3-thiazole-4-carboxamide] | 50 to 500 |
| CCC(NC(=O)c1csc(CNC(=O)COc2ccc(OC(F)(F)F)cc2)n1)c1ccccc1 (centres unmarked) [Entry 65, N-(1-phenylpropyl)-2-({[({4-[(trifluoromethyl)oxy]phenyl}oxy)acetyl]amino}methyl)-1,3-thiazole-4-carboxamide] | 50 to 500 |
| O=C(COc1ccc(OC(F)(F)F)cc1)NCc1nc(C(=O)N2CCN(c3c(Cl)cncc3Cl)CC2)cs1 [Entry 66, N-[(4-{[4-(3,5-dichloropyridin-4-yl)piperazin-1-yl]carbonyl}-1,3-thiazol-2-yl)methyl]-2-({4-[(trifluoromethyl)oxy]phenyl}oxy)acetamide] | 50 to 500 |
| CC(C)(C)c1ccc(OCC(=O)NCc2nc(C(=O)NCCc3cccc(Cl)c3)cs2)cc1 [Entry 67, N-[2-(3-chlorophenyl)ethyl]-2-{[({[4-(1,1-dimethylethyl)phenyl]oxy}acetyl)amino]methyl}-1,3-thiazole-4-carboxamide] | 50 to 500 |
| CCOc1ccc(CCNC(=O)c2csc(CNC(=O)COc3ccc(OC(F)(F)F)cc3)n2)cc1 [Entry 68, N-{2-[4-(ethyloxy)phenyl]ethyl}-2-({[({4-[(trifluoromethyl)oxy]phenyl}oxy)acetyl]amino}methyl)-1,3-thiazole-4-carboxamide] | 50 to 500 |
| O=C(COc1ccc(OC(F)(F)F)cc1)NCc1nc(C(=O)NCc2cc(Cl)cc(Cl)c2)cs1 [Entry 69, N-[(3,5-dichlorophenyl)methyl]-2-({[({4-[(trifluoromethyl)oxy]phenyl}oxy)acetyl]amino}methyl)-1,3-thiazole-4-carboxamide] | 50 to 500 |
| NC(=O)[C@@H](Cc1ccccc1)NC(=O)c1csc(CNC(=O)COc2ccc(OC(F)(F)F)cc2)n1 [Entry 70, Nalpha-{[2-({[({4-[(trifluoromethyl)oxy]phenyl}oxy)acetyl]amino}methyl)-1,3-thiazol-4-yl]carbonyl}-D-phenylalaninamide] | 50 to 500 |
| O=C(COc1ccc(OC(F)(F)F)cc1)NCc1nc(C(=O)NCCSCc2ccco2)cs1 [Entry 71, N-{2-[(furan-2-ylmethyl)thio]ethyl}-2-({[({4-[(trifluoromethyl)oxy]phenyl}oxy)acetyl]amino}methyl)-1,3-thiazole-4-carboxamide] | 50 to 500 |
| CC(C)c1ccc(OCC(=O)NCc2nc(C(=O)NCCc3cccc(Cl)c3)cs2)cc1 [Entry 72, N-[2-(3-chlorophenyl)ethyl]-2-{[({[4-(1-methylethyl)phenyl]oxy}acetyl)amino]methyl}-1,3-thiazole-4-carboxamide] | 50 to 500 |
| O=C(COc1ccc(OC(F)(F)F)cc1)NCc1nc(C(=O)NCc2ccc(Cl)c(C(F)(F)F)c2)cs1 [Entry 73, N-{[4-chloro-3-(trifluoromethyl)phenyl]methyl}-2-({[({4-[(trifluoromethyl)oxy]phenyl}oxy)acetyl]amino}methyl)-1,3-thiazole-4-carboxamide] | 50 to 500 |
| CCCOCCCNC(=O)c1csc(CNC(=O)COc2ccc(OC(F)(F)F)cc2)n1 [Entry 74, N-[3-(propyloxy)propyl]-2-({[({4-[(trifluoromethyl)oxy]phenyl}oxy)acetyl]amino}methyl)-1,3-thiazole-4-carboxamide] | 50 to 500 |
| O=C(COc1ccc(OC(F)(F)F)cc1)NCc1nc(C(=O)NCc2ccc(Cl)c(Cl)c2)cs1 [Entry 75, N-[(3,4-dichlorophenyl)methyl]-2-({[({4-[(trifluoromethyl)oxy]phenyl}oxy)acetyl]amino}methyl)-1,3-thiazole-4-carboxamide] | 50 to 500 |
| O=C(COc1ccc(OC(F)(F)F)cc1)NCc1nc(C(=O)NC2CCCCCCC2)cs1 [Entry 76, N-cyclooctyl-2-({[({4-[(trifluoromethyl)oxy]phenyl}oxy)acetyl]amino}methyl)-1,3-thiazole-4-carboxamide] | 50 to 500 |
| O=C(COc1ccc(OC(F)(F)F)cc1)NCc1nc(C(=O)NCCc2ccccn2)cs1 [Entry 77, N-(2-pyridin-2-ylethyl)-2-({[({4-[(trifluoromethyl)oxy]phenyl}oxy)acetyl]amino}methyl)-1,3-thiazole-4-carboxamide] | 50 to 500 |
| COc1cccc(CNC(=O)c2csc(CNC(=O)Nc3ccc(C(C)C)cc3)n2)c1OC [Entry 78, N-{[2,3-bis(methyloxy)phenyl]methyl}-2-{[({[4-(1-methylethyl)phenyl]amino}carbonyl)amino]methyl}-1,3-thiazole-4-carboxamide] | 50 to 500 |
| O=C(COc1ccc(OC(F)(F)F)cc1)NCc1nc(C(=O)N[C@H]2CCCc3ccccc32)cs1 [Entry 79, N-[(1S)-1,2,3,4-tetrahydronaphthalen-1-yl]-2-({[({4-[(trifluoromethyl)oxy]phenyl}oxy)acetyl]amino}methyl)-1,3-thiazole-4-carboxamide] | 50 to 500 |
| COc1ccccc1CCNC(=O)c1csc(CNC(=O)COc2ccc(OC(F)(F)F)cc2)n1 [Entry 80, N-{2-[2-(methyloxy)phenyl]ethyl}-2-({[({4-[(trifluoromethyl)oxy]phenyl}oxy)acetyl]amino}methyl)-1,3-thiazole-4-carboxamide] | 50 to 500 |
| COc1ccc(OCCNC(=O)c2csc(CNC(=O)COc3ccc(OC(F)(F)F)cc3)n2)cc1 [Entry 81, N-(2-{[4-(methyloxy)phenyl]oxy}ethyl)-2-({[({4-[(trifluoromethyl)oxy]phenyl}oxy)acetyl]amino}methyl)-1,3-thiazole-4-carboxamide] | 50 to 500 |
| COc1ccccc1CNC(=O)c1csc(CNC(=O)COc2ccc(I)cc2)n1 [Entry 82, 2-[({[(4-iodophenyl)oxy]acetyl}amino)methyl]-N-{[2-(methyloxy)phenyl]methyl}-1,3-thiazole-4-carboxamide] | 50 to 500 |
| O=C(COc1ccc(OC(F)(F)F)cc1)NCc1nc(C(=O)NCCc2ccc(Cl)cc2)cs1 [Entry 83, N-[2-(4-chlorophenyl)ethyl]-2-({[({4-[(trifluoromethyl)oxy]phenyl}oxy)acetyl]amino}methyl)-1,3-thiazole-4-carboxamide] | 50 to 500 |
| O=C(COc1ccc(OC(F)(F)F)cc1)NCc1nc(C(=O)NC2CCN(Cc3ccccc3)CC2)cs1 [Entry 84, N-[1-(phenylmethyl)piperidin-4-yl]-2-({[({4-[(trifluoromethyl)oxy]phenyl}oxy)acetyl]amino}methyl)-1,3-thiazole-4-carboxamide] | 50 to 500 |
| CC(NC(=O)c1csc(CNC(=O)COc2ccc(OC(F)(F)F)cc2)n1)c1cccc2ccccc12 (centres unmarked) [Entry 85, N-(1-naphthalen-1-ylethyl)-2-({[({4-[(trifluoromethyl)oxy]phenyl}oxy)acetyl]amino}methyl)-1,3-thiazole-4-carboxamide] | 50 to 500 |
| CC(NC(=O)c1csc(CNC(=O)COc2ccc(OC(F)(F)F)cc2)n1)c1ccc(F)cc1 (centres unmarked) [Entry 86, N-[1-(4-fluorophenyl)ethyl]-2-({[({4-[(trifluoromethyl)oxy]phenyl}oxy)acetyl]amino}methyl)-1,3-thiazole-4-carboxamide] | 50 to 500 |
| CC1CCCCC1NC(=O)c1csc(CNC(=O)COc2ccc(OC(F)(F)F)cc2)n1 (centres unmarked) [Entry 87, N-(2-methylcyclohexyl)-2-({[({4-[(trifluoromethyl)oxy]phenyl}oxy)acetyl]amino}methyl)-1,3-thiazole-4-carboxamide] | 50 to 500 |
| C[C@@H]1[C@H]2C[C@@H](C[C@H]1NC(=O)c1csc(CNC(=O)COc3ccc(OC(F)(F)F)cc3)n1)C2(C)C [Entry 88, 2-({[({4-[(trifluoromethyl)oxy]phenyl}oxy)acetyl]amino}methyl)-N-[(1R,2R,3R,5S)-2,6,6-trimethylbicyclo[3.1.1]hept-3-yl]-1,3-thiazole-4-carboxamide] | 50 to 500 |
| C[C@@H]1[C@@H](NC(=O)c2coc(CNC(=O)COc3ccc(OC(F)(F)F)cc3)n2)C[C@H]2C[C@@H]1C2(C)C [Entry 89, 2-({[({4-[(trifluoromethyl)oxy]phenyl}oxy)acetyl]amino}methyl)-N-[(1S,2S,3S,5R)-2,6,6-trimethylbicyclo[3.1.1]hept-3-yl]-1,3-oxazole-4-carboxamide] | 50 to 500 |
| O=C(COc1ccc(OC(F)(F)F)cc1)NCc1nc(C(=O)NCCc2ccc(Br)cc2)cs1 [Entry 90, N-[2-(4-bromophenyl)ethyl]-2-({[({4-[(trifluoromethyl)oxy]phenyl}oxy)acetyl]amino}methyl)-1,3-thiazole-4-carboxamide] | 50 to 500 |
